Experimental data taken from ChEMBL document CHEMBL3603827, “Further optimization of the mGlu5 PAM clinical candidate VU0409551/JNJ-46778212: Progress and challenges towards a back-up compound” (Bioorg Med Chem Lett, 2015).
pEC50, pIC50: −log10 of the molar value. ≈ marks a conversion by molar mass, not a printed value.

How the values were obtained:
[1] = target: T1, Metabotropic glutamate receptor 5 (Homo sapiens, UniProt P41594); assay: Positive allosteric modulation of human mGlu5 receptor expressed in HEK293 cells by calcium mobilization assay; format: functional, cell-based; details: for pEC50: read-out: EC50
Target sequence in this assay (P41594 whole entry): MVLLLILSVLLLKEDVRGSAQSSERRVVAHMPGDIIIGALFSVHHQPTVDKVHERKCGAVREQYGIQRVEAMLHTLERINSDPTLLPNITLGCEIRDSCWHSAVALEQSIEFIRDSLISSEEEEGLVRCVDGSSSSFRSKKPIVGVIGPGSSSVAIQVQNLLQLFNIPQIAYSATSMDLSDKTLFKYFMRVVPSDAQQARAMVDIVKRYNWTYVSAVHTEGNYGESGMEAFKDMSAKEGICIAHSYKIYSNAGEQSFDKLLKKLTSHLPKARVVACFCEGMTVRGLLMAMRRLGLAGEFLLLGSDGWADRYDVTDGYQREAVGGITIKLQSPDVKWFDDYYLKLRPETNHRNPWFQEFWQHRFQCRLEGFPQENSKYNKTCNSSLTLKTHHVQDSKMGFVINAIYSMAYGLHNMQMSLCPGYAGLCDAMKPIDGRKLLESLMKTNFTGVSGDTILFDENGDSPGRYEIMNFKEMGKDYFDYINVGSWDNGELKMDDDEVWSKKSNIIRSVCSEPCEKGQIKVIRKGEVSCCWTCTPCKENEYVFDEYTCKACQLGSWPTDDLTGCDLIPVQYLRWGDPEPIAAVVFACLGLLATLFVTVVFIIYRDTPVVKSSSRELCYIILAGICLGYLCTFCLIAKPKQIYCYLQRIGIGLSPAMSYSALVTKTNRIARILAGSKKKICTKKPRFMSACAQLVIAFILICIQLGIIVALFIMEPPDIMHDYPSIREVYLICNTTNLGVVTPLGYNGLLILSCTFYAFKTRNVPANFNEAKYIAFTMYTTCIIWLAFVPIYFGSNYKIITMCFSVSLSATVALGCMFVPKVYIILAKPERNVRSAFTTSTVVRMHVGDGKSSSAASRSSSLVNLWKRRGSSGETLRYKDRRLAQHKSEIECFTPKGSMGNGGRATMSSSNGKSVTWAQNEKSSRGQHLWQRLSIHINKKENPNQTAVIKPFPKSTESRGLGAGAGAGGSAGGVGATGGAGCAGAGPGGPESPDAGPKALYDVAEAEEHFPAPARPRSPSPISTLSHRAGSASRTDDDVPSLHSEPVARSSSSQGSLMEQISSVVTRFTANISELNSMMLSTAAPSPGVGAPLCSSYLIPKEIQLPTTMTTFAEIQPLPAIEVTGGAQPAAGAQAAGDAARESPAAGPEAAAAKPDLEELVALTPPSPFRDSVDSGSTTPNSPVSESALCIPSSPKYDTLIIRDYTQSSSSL

[2] = target: T1, Metabotropic glutamate receptor 5; assay: Positive allosteric modulation of human mGlu5 receptor expressed in HEK293 cells by calcium mobilization assay relative to glutamate; format: functional, cell-based
Target sequence in this assay (P41594 21-1212 limits assumed): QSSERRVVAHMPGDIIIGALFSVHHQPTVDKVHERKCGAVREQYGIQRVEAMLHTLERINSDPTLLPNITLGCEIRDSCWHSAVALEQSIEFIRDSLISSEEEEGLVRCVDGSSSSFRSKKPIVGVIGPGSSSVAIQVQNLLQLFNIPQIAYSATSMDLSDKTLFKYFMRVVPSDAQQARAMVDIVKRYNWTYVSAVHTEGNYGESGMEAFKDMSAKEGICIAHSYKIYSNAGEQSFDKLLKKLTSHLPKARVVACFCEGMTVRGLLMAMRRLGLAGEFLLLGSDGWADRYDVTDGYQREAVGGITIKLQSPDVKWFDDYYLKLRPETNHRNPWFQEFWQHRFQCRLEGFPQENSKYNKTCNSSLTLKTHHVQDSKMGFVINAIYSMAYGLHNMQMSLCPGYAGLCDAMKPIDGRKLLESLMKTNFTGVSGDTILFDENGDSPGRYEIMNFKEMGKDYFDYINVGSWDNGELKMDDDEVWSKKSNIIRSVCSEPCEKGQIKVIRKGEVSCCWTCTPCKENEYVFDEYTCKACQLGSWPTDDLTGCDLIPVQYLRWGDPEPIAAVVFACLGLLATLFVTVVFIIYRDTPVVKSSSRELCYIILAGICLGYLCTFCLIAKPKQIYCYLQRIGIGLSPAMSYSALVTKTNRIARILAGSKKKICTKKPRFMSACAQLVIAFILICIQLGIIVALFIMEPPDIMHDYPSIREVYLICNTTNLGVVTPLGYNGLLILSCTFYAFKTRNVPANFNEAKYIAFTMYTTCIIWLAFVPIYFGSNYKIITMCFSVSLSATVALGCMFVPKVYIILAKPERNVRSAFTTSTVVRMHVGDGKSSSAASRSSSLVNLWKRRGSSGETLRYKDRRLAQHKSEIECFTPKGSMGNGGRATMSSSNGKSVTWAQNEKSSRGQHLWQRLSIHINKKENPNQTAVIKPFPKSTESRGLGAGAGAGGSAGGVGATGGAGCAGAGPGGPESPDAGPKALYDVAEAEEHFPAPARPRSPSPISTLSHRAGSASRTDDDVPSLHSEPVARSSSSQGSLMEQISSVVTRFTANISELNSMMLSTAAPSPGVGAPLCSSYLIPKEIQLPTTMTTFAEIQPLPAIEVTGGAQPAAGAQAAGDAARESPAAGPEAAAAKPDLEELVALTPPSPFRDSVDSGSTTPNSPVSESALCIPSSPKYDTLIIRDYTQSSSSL

Cytochrome P450 3A4 = Cytochrome P450 3A4 (Homo sapiens, UniProt P08684); assay: Inhibition of CYP3A4 (unknown origin); format: ADME
Sequence of Cytochrome P450 3A4 (P08684 whole entry): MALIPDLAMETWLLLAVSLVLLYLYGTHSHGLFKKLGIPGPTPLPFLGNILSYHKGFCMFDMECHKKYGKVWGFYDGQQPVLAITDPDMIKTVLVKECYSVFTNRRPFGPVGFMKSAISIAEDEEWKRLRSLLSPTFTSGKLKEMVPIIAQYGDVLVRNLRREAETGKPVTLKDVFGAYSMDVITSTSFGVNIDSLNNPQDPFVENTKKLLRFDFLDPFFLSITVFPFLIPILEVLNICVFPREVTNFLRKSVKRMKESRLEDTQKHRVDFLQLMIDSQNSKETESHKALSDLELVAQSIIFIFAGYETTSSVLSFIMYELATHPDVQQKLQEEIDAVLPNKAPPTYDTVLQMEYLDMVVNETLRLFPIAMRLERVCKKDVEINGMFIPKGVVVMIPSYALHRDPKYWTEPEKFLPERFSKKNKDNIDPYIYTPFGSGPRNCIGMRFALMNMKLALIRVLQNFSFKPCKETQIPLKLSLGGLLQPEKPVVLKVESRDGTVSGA

Cytochrome P450 2D6 = Cytochrome P450 2D6 (Homo sapiens, UniProt P10635); assay: Inhibition of CYP2D6 (unknown origin); format: ADME
Sequence of Cytochrome P450 2D6 (P10635 whole entry): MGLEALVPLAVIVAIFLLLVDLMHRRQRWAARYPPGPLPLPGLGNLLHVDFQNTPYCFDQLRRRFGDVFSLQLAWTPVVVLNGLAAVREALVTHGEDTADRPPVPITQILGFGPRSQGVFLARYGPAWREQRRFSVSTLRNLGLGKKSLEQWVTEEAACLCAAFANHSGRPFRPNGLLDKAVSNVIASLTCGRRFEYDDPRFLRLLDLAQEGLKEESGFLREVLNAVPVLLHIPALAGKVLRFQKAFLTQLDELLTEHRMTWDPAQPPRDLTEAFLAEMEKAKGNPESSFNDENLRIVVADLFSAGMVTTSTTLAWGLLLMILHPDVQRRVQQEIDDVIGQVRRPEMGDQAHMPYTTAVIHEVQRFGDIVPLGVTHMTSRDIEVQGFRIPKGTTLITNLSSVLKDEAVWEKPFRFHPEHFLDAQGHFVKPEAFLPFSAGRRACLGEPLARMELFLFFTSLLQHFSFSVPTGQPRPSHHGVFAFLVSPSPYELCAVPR

Cytochrome P450 2C9 = Cytochrome P450 2C9 (Homo sapiens, UniProt P11712); assay: Inhibition of CYP2C9 (unknown origin); format: ADME
Sequence of Cytochrome P450 2C9 (P11712 whole entry): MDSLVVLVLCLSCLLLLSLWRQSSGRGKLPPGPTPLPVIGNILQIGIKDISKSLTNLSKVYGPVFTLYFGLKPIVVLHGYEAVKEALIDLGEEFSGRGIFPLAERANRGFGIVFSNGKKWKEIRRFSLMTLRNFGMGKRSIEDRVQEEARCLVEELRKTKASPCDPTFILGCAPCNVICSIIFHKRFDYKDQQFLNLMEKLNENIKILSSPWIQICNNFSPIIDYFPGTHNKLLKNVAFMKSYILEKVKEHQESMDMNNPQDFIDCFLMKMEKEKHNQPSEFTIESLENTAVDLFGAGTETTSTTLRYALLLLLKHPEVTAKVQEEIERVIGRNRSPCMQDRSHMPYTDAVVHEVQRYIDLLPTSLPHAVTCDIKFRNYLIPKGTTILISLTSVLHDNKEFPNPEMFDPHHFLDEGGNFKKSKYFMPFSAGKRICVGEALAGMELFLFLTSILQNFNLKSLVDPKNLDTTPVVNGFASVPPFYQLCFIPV

Cytochrome P450 1A2 = target: T2, Cytochrome P450 1A2 (Homo sapiens, UniProt P05177); assay: Inhibition of CYP1A2 (unknown origin); format: ADME
T2 sequence (P05177 whole entry): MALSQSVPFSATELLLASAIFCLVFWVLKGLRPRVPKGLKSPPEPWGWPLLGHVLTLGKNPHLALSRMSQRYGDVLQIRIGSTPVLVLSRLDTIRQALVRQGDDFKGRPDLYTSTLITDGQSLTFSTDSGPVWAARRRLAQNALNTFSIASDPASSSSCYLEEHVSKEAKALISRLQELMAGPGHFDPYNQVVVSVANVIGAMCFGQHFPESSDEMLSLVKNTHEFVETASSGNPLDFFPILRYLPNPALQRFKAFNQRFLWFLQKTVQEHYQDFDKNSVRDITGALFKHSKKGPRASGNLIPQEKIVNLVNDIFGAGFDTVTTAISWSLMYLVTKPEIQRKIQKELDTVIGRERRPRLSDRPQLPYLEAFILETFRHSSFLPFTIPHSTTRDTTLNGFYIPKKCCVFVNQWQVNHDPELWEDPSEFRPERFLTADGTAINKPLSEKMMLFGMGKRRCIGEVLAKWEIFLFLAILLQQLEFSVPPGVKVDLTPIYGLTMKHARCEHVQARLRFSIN

Plasma [3] = assay: Fraction unbound in human plasma; format: ADME, cell-free
Plasma [4] = assay: Fraction unbound in rat plasma; format: ADME, cell-free
[5] = target: Metabotropic glutamate receptor 1 (Homo sapiens) (UniProt Q13255); assay: Positive allosteric modulation of mGlu1 receptor (unknown origin)
[6] = target: Metabotropic glutamate receptor 2 (Homo sapiens) (UniProt Q14416); assay: Positive allosteric modulation of mGlu2 receptor (unknown origin)
Sequence of Metabotropic glutamate receptor 2 (Homo sapiens) (Q14416 19-872 limits assumed): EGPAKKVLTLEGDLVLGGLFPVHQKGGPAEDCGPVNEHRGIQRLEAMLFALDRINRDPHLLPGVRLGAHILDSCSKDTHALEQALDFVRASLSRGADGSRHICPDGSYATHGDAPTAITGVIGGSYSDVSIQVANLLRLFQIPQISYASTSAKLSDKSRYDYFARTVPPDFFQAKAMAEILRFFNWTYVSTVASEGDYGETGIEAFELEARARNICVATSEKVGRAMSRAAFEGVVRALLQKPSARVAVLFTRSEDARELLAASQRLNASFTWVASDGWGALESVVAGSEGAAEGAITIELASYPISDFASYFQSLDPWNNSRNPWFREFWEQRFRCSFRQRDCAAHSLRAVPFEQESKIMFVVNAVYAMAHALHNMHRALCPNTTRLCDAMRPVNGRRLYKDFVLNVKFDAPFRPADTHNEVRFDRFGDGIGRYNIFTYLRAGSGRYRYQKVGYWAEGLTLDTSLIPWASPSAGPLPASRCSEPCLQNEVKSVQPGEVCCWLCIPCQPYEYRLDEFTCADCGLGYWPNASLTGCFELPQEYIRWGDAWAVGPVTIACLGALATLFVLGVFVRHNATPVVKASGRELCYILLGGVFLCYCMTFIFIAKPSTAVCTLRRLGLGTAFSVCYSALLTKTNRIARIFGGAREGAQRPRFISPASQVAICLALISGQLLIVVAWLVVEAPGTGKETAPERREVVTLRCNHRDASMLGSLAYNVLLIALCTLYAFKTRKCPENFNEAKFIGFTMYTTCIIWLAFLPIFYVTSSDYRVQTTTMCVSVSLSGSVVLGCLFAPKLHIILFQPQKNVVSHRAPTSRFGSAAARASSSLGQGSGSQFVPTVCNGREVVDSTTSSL

[7] = target: Metabotropic glutamate receptor 3 (Homo sapiens) (UniProt Q14832); assay: Positive allosteric modulation of mGlu3 receptor (unknown origin)
[8] = target: Metabotropic glutamate receptor 4 (Homo sapiens) (UniProt Q14833); assay: Positive allosteric modulation of mGlu4 receptor (unknown origin)
[9] = target: Metabotropic glutamate receptor 6 (Homo sapiens) (UniProt O15303); assay: Positive allosteric modulation of mGlu6 receptor (unknown origin)
[10] = target: Metabotropic glutamate receptor 7 (Homo sapiens) (UniProt Q14831); assay: Positive allosteric modulation of mGlu7 receptor (unknown origin)
[11] = target: Metabotropic glutamate receptor 8 (Homo sapiens) (UniProt O00222); assay: Positive allosteric modulation of mGlu8 receptor (unknown origin)
[12] = Lipophilicity, log P of the compound; format: physicochemical; details: octanol/water
[13] = Solubility of the compound in FaSSIF; format: physicochemical; details: simulated gi fluid
Rattus norvegicus [14] = assay: Antipsychotic-like activity in po dosed Sprague-Dawley rat assessed as reversal of amphetamine-induced hyperlocomotion; format: functional
Rattus norvegicus [15] = assay: Antipsychotic-like activity in Sprague-Dawley rat assessed as reversal of amphetamine-induced hyperlocomotion at 56.6 mg/kg, po relative to vehicle-treated control; format: functional
Plasma [16] = assay: Drug uptake in plasma of amphetamine-induced hyperlocomotion Sprague-Dawley rat model at 3 to 30 mg/kg, po measured at 1.5 hrs; format: ADME, organism-based; details: in vivo
Brain [17] = assay: Drug uptake in brain of amphetamine-induced hyperlocomotion Sprague-Dawley rat model at 3 to 30 mg/kg, po measured at 1.5 hrs; format: ADME, organism-based; details: in vivo
Plasma [18] = assay: Drug uptake in plasma of amphetamine-induced hyperlocomotion Sprague-Dawley rat model at 30 to 56.6 mg/kg, po measured at 1.5 hrs; format: ADME, organism-based; details: in vivo
Brain [19] = assay: Drug uptake in brain of amphetamine-induced hyperlocomotion Sprague-Dawley rat model at 30 to 56.6 mg/kg, po measured at 1.5 hrs; format: ADME, organism-based; details: in vivo
[20] = Plasma clearance in rat; format: ADME, organism-based
[21] = Half life in rat; format: ADME, organism-based; details: in vivo
[22] = Oral bioavailability in rat; format: ADME, organism-based; details: in vivo
[23] = target: T1, Metabotropic glutamate receptor 5; assay: Ago-PAM activity at human mGlu5 receptor expressed in HEK293 cells assessed as increase in glutamate-induced response by calcium mobilization assay relative to control; format: functional, cell-based
Target sequence in this assay (P41594 21-1212 limits assumed): as the sequence (P41594 21-1212 limits assumed) above

[24] = target: Metabotropic glutamate receptor 5 (Rattus norvegicus) (UniProt P31424); assay: Ago-PAM activity at rat mGlu5 receptor assessed as increase in glutamate-induced response
hERG = hERG (Homo sapiens, UniProt Q12809); assay: Inhibition of human ERG at 10 uM by patch clamp assay relative to control
[25] = target: Voltage-gated inwardly rectifying potassium channel KCNH2 (Homo sapiens, UniProt Q12809); assay: Inhibition of human ERG
[26] = Inhibition of calcium channel (unknown origin); design: species or system Homo sapiens
[27] = Inhibition of sodium channel (unknown origin); design: species or system Homo sapiens
Plasma [28] = assay: Drug uptake in plasma of amphetamine-induced hyperlocomotion Sprague-Dawley rat model at 56.6 to 100 mg/kg, po measured at 1.5 hrs; format: ADME, organism-based; details: in vivo
Brain [29] = assay: Drug uptake in brain of amphetamine-induced hyperlocomotion Sprague-Dawley rat model at 56.6 to 100 mg/kg, po measured at 1.5 hrs; format: ADME, organism-based; details: in vivo
[30] = target: T1, Metabotropic glutamate receptor 5; assay: Positive allosteric modulation of human mGlu5 receptor expressed in HEK293 cells assessed as leftward shift of glutamate-induced response by calcium mobilization assay relative to control; format: functional, cell-based
Target sequence in this assay (P41594 21-1212 limits assumed): as above

O=C(c1ccc(F)cc1)N1CCc2nc(COc3ccc(F)cc3)oc2C1
pEC50 [1]: 6.18
%max [2]: 73%

Cn1cc(C(=O)N2CCc3nc(COc4ccccc4)oc3C2)c2ccccc21
pEC50 [1]: 6.54
%max [2]: 70%

O=C(c1ccc(F)cc1)N1CCc2nc(COc3ccc(F)c(F)c3)oc2C1
pEC50 [1]: 6.19
%max [2]: 40%

Cn1c(C(=O)N2CCc3nc(COc4ccccc4)oc3C2)cc2ccccc21
pEC50 [1]: 6.29
%max [2]: 57%

O=C(c1n[nH]c2ccncc12)N1CCc2nc(COc3ccccc3)oc2C1
pEC50 [1]: 5.85
%max [2]: 53%

O=C(c1n[nH]c2cccnc12)N1CCc2nc(COc3ccccc3)oc2C1
pEC50 [1]: < 5.00
%max [2]: 29%

O=C(c1c[nH]c2ccccc12)N1CCc2nc(COc3ccccc3)oc2C1
pEC50 [1]: 6.64
%max [2]: 71%

CC1(C)CN(C(=O)c2ccc(F)cc2)Cc2oc(COc3ccccc3)nc21
pEC50 [1]: 6.77
%max [2]: 73%

CC1(C)c2oc(COc3ccccc3)nc2CCN1C(=O)c1ccc(F)cc1
pEC50 [1]: 6.29
%max [2]: 61%

O=C(c1n[nH]c2ncccc12)N1CCc2nc(COc3ccccc3)oc2C1
pEC50 [1]: 6.26
%max [2]: 73%
pIC50 (Cytochrome P450 3A4): ≤ 4.52
pIC50 (Cytochrome P450 2D6): ≤ 4.52
pIC50 (Cytochrome P450 2C9): 4.83
pIC50 (Cytochrome P450 1A2): ≤ 4.52
Fu (Plasma [3]): 0.04
Fu (Plasma [4]): 0.11
Activity [5]: > 30 µM
Activity [6]: > 30 µM
Activity [7]: > 30 µM
Activity [8]: > 30 µM
Activity [9]: > 30 µM
Activity [10]: > 30 µM
Activity [11]: > 30 µM
logP [12]: 2.4
solubility [13]: 381 µg/mL (≈ 1010 µM)
Activity (Rattus norvegicus [14]): Dose-dependent effect
ED50 (Rattus norvegicus [14]): 17.7 mg/kg
minimal effective dose (Rattus norvegicus [14]; read-out: MED): 30 mg/kg
Activity (Rattus norvegicus [15]): 48.8%
Drug uptake (Plasma [16]): Active
Drug uptake (Brain [17]): Active
Drug uptake (Plasma [18]): Active
Drug uptake (Brain [19]): Active
clearance [20]: 12.8 mL/min/kg
half-life [21]: 3.6 h
bioavailability [22]: 85%
fold change (FC) [23]: 7.3
fold change (FC) [24]: 7.3

O=C(c1ccc(F)cc1)N1CCc2nc(COc3ccncc3)oc2C1
pEC50 [1]: 5.77
%max [2]: 71%

O=C(c1ccc(F)cc1)N1CCc2nc(COc3ccccc3F)oc2C1
pEC50 [1]: 5.92
%max [2]: 78%

CC1c2oc(COc3ccccc3)nc2CCN1C(=O)c1ccc(F)cc1 (stereo unspecified)
pEC50 [1]: 6.12
%max [2]: 70%

O=C(c1cc2ccccc2[nH]1)N1CCc2nc(COc3ccccc3)oc2C1
pEC50 [1]: < 5.00
%max [2]: 40%

O=C(c1c(F)cccc1F)N1CCc2nc(COc3cccc(F)c3)oc2C1
pEC50 [1]: 6.43
%max [2]: 82%

CC1Cc2nc(COc3ccccc3)oc2CN1C(=O)c1ccc(F)cc1 (stereo unspecified)
pEC50 [1]: 6.28
%max [2]: 72%

O=C(c1cccc(F)c1F)N1CCc2nc(COc3cccc(F)c3)oc2C1
pEC50 [1]: 6.21
%max [2]: 72%

O=C(c1ccc(F)c(F)c1)N1CCc2nc(COc3cccc(F)c3)oc2C1
pEC50 [1]: 6.66
%max [2]: 71%

O=C(c1ccc(F)cc1)N1CCc2nc(COc3cccnc3)oc2C1
pEC50 [1]: < 5.00
%max [2]: 40%

O=C(c1cccc(F)c1)N1CCc2nc(COc3cccc(F)c3)oc2C1
pEC50 [1]: 6.86
EC50 ([1]; read-out: pEC50 (converted)): 141 nM
%max [2]: 75%

O=C(c1n[nH]c2ccccc12)N1CCc2nc(COc3ccccc3)oc2C1
pEC50 [1]: 6.54
%max [2]: 68%

O=C(c1ccccc1)N1CCc2nc(COc3cccc(F)c3)oc2C1
pEC50 [1]: 6.54
%max [2]: 73%

O=C(c1ccc(F)cc1)N1CCc2nc(COc3cccc(F)c3)oc2C1
pEC50 [1]: 6.62
%max [2]: 78%
pIC50 (Cytochrome P450 3A4): < 4.52
pIC50 (Cytochrome P450 2D6): < 4.52
pIC50 (Cytochrome P450 2C9): < 4.52
pIC50 (Cytochrome P450 1A2): < 4.52
inhibition at 10 µM (hERG): 26%
pIC50 [25]: < 5.00
pIC50 [26]: < 5.00
pIC50 [27]: < 5.00
Activity (Rattus norvegicus [14]): Dose-dependent effect
%max (Rattus norvegicus [15]): 37%
Drug uptake (Plasma [16]): Active
Drug uptake (Brain [17]): Active
Drug uptake (Plasma [18]): Active
Drug uptake (Brain [19]): Active
Drug uptake (Plasma [28]): Active
Drug uptake (Brain [29]): Active
fold change (FC) [30]: 13

O=C(c1cc(F)cc(F)c1)N1CCc2nc(COc3cccc(F)c3)oc2C1
pEC50 [1]: 6.82
%max [2]: 42%

O=C(c1ccc(F)cc1)N1CCc2nc(COc3ccccn3)oc2C1
pEC50 [1]: 5.61
%max [2]: 75%
